Each structure is given as a SMILES string. Structures can show the parent of a compound that is named as a salt.

The source of these data is patent US8765748B2, “Indazolyl, benzimidazolyl, benzotriazolyl substituted indolinone derivatives as kinase inhibitors useful in the treatment of cancer” (University Health Network, priority 2007, dated 2014).

The target in this assay is T1, human PLK4 (Homo sapiens, UniProt O00444).
T1 construct: amino terminal GST fusion of residues 1-391 of human PLK4; made in house; host or cells: E. coli
T1 sequence (O00444 1-391): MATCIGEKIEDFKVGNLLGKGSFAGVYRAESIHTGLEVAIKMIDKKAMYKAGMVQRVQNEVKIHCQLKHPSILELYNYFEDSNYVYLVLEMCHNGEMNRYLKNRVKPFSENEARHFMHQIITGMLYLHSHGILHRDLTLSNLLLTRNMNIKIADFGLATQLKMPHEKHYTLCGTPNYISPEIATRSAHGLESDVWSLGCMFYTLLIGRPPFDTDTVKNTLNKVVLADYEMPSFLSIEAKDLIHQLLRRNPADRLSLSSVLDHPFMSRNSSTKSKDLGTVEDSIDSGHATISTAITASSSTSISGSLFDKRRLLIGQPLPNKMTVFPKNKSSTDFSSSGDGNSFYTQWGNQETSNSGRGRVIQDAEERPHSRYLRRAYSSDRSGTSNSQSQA
Briefly: PLK4 Inhibition Assay (indirect ELISA). Conditions: 15 μM ATP, 4 nM GST-PLK4; read-out: PLK4 IC50 Ranges. The assay is classed as biochemical. The method, then: The protein was purified from clarified cell extracts after induction at 15° C. overnight using glutathione sepharose, gel permeation chromatography, and ion exchange (Resource Q). The resulting protein was dephosphorylated with lambda phosphatase (NEB cat #P0753), and resolved from the phosphatase using gluthione sepharose. The dephosphorylated GST-PLK4 was stored in aliquots at −80° C. until use. PLK4 activity was measured using an indirect ELISA detection system. […] Compounds were pre-incubated in the presence of enzyme for 15 minutes prior to addition of ATP and the activity remaining quantified using the above described activity assay. […] The IC50 value was determined using a non-linear 4 point logistic curve fit (XLfit4, IDBS) with the formula; (A+(B/(1+((x/C)^D)))), where A=background value, B=range, C=inflection point, D=curve fit parameter.

Broadly, the IC50 is the concentration that gives 50% inhibition. Regarding `O=C1Nc2ccc(F)cc2C1=Nc1ccc2cn[nH]c2c1` [Example A75, (E and Z)-3-(1H-indazol-6-ylimino)-5-fluoroindolin-2-one], the IC50 lay within 5 to 50 µM.
Take `O=C1Nc2ccccc2C1=Cc1ccc2[nH]nc(/C=C/c3ccncc3)c2c1` (mixture of isomers) [Example A131, (E and Z)-3-((3-((E)-2-(pyridin-4-yl)vinyl)-1H-indazol-5-yl)-methylene)indolin-2-one hydrochloride]: the IC50 was less than 5 µM.
On to `O=C1Nc2ccccc2C1=Cc1ccc2c(-c3ccn[nH]3)n[nH]c2c1` (mixture of isomers) [Example A98, (E and Z)-3-((3-(1H-pyrazol-5-yl)-1H-indazol-6-yl)methylene)-indolin-2-one], for which the IC50 is less than 5 µM.
Consider `O=C1Nc2ccccc2C1=Nc1ccc2[nH]ncc2c1` [Example A77, (E and Z)-3-(1H-indazol-5-ylimino)indolin-2-one], for which the IC50 fell in the range of 5 to 50 µM.
With `O=C1Nc2ccccc2/C1=C\c1ccc2c(C3CC3)n[nH]c2c1` [Example A102, (E)-3-((3-cyclopropyl-1H-indazol-6-yl)methylene)indolin-2-one], the IC50 was less than 5 µM.
On to `O=C1Nc2cc(Br)ccc2C1=Nc1ccc2cn[nH]c2c1` [Example A76, (E and Z)-3-(1H-indazol-6-ylimino)-6-bromoindolin-2-one], for which the IC50 fell in the range of 5 to 50 µM.
With `O=C1Nc2ccc(F)cc2C1=Nc1ccc2[nH]ncc2c1` [Example A79, (E and Z)-3-(1H-indazol-5-ylimino)-5-fluoroindolin-2-one], the 50% inhibitory concentration (IC50) was 5 to 50 µM.
As to `COc1cc2c(cc1OC)/C(=C\c1ccc3cn[nH]c3c1)C(=O)N2` [Example A135, (E)-3-((1H-indazol-6-yl)methylene)-5,6-dimethoxyindolin-2-one], the IC50 was less than 5 µM.
Then `O=C1Nc2ccccc2/C1=C\c1cc(Cl)c2cn[nH]c2c1` [Example A52, (E)-3-((4-chloro-1H-indazol-6-yl)methylene)indolin-2-one], with less than 5 µM; and `O=C1Nc2cccc(Br)c2/C1=C/c1ccc2cn[nH]c2c1` [Example A133, (Z)-3-((1H-indazol-6-yl)methylene)-4-bromoindolin-2-one], with less than 5 µM; and `Cc1ccc2c(c1)C(=Nc1ccc3cn[nH]c3c1)C(=O)N2` [Example A74, (E and Z)-3-(1H-indazol-6-ylimino)-5-methylindolin-2-one], with less than 5 µM.
With `CN1CCN(c2ccc(-c3n[nH]c4ccc(C=C5C(=O)Nc6ccccc65)cc34)cn2)CC1` (mixture of isomers) [Example A155, (E and Z)-3-((3-(6-(4-methylpiperazin-1-yl)pyridin-3-yl)-1H-indazol-5-yl)methylene)indolin-2-one], the IC50 was less than 5 µM.
Regarding `O=C1Nc2ccccc2C1=Nc1ccc2cn[nH]c2c1` [Example A73, (E and Z)-3-(1H-indazol-6-ylimino)indolin-2-one], the IC50 is less than 5 µM.
For `O=C1Nc2ccccc2/C1=C\c1ccc2c(I)n[nH]c2c1` [Example A39, (E)-3-((3-iodo-1H-indazol-6-yl)methylene)indolin-2-one] the value was less than 5 µM; for `Cc1ccc2c(c1)C(=Nc1ccc3[nH]ncc3c1)C(=O)N2` [Example A78, (E and Z)-3-(1H-indazol-5-ylimino)-5-methylindolin-2-one], less than 5 µM; for `Cn1ccnc1/C=C/c1n[nH]c2cc(C=C3C(=O)Nc4ccccc43)ccc12` (mixture of isomers) [Example A105, (E and Z)-3-((3-((E)-2-(1-methyl-1H-imidazol-2-yl)vinyl)-1H-indazol-6-yl)methylene)indolin-2-one], less than 5 µM.
Take `Nc1n[nH]c2ccc(C=C3C(=O)Nc4ccccc43)cc12` (mixture of isomers) [Example A40, (E & Z)-3-((3-amino-1H-indazol-5-yl)methylene)indolin-2-one]: the IC50 lay in the range of 5 to 50 µM.
